Assay results from paper PMC9186362, “Design and biological evaluation of substituted 5,7-dihydro-6H-indolo[2,3-c]quinolin-6-one as novel selective Haspin inhibitors” (Journal of Enzyme Inhibition and Medicinal Chemistry, 2022).

Experiments:
VRK2 = target: T1, VRK2 (Homo sapiens, UniProt Q86Y07); assay: LanthaScreen Binding - Eu-anti-GST; conditions: read-out: Percentage of inhibition
T1 construct: purchased Life Technologies (SelectScreen Whole Panel)
Protocol: (§1) We further evaluated the selectivity profile of compound 55 on a larger panel of kinases (SelectScreen Whole Panel, Life Technologies). The inhibition profile of 55, evaluated at 1 μM, is depicted on a dendrogram on Figure 3 where kinases inhibited by a minimum of 80% are shown. A full list of the kinases tested is shown on Table S1 in supplementary information.

FYN A = target: T2, FYN A (Homo sapiens, UniProt P06241); assay: LanthaScreen Binding - Eu-anti-GST; conditions: read-out: Percentage of inhibition
T2 construct: purchased Life Technologies (SelectScreen Whole Panel service)
Protocol: as §1

CDK5 (Inactive) = CDK5 (Inactive) (Homo sapiens, UniProt Q00535); assay: LanthaScreen Binding - Eu-anti-GST; conditions: read-out: Percentage of inhibition
Protocol: as §1

CDK3/cyclin E1 = target: T3, CDK3/cyclin E1 (Homo sapiens, UniProt Q00526); assay: LanthaScreen Binding - Eu-anti-GST; conditions: read-out: Percentage of inhibition
T3 construct: purchased Life Technologies (SelectScreen Whole Panel)
Protocol: as §1

MAP3K14 (NIK) = target: T4, MAP3K14 (NIK) (Homo sapiens, UniProt Q99558); assay: LanthaScreen Binding - Eu-anti-GST; conditions: read-out: Percentage of inhibition
T4 construct: purchased Life Technologies (SelectScreen service)
Protocol: as §1

FLT3 ITD = assay: LanthaScreen Binding - Eu-anti-GST; conditions: 1 µM
Protocol: as §1

TESK1 = TESK1 (Homo sapiens, UniProt Q15569); assay: LanthaScreen Binding - Eu-anti-GST; conditions: read-out: Percentage of inhibition
Protocol: as §1

MAP3K3 (MEKK3) = target: T5, MAP3K3 (MEKK3) (Homo sapiens, UniProt Q99759); assay: LanthaScreen Binding - Eu-anti-GST; conditions: read-out: Percentage of inhibition
T5 construct: purchased Life Technologies (SelectScreen service)
Protocol: as §1

AXL R499C = target: T6, AXL R499C (Homo sapiens, UniProt P30530, R499C); assay: LanthaScreen Binding - Eu-anti-GST; conditions: read-out: Percentage of inhibition
T6 construct: purchased Life Technologies
Protocol: as §1

PKN2 (PRK2) = target: T7, PKN2 (PRK2) (Homo sapiens, UniProt Q16513); assay: LanthaScreen Binding - Eu-anti-GST; conditions: read-out: Percentage of inhibition
T7 construct: purchased Life Technologies
Protocol: as §1

LIMK2 = target: T8, LIMK2 (Homo sapiens, UniProt P53671); assay: LanthaScreen Binding - Eu-anti-GST; conditions: read-out: Percentage of inhibition
T8 construct: purchased Life Technologies (SelectScreen Whole Panel service)
Protocol: as §1

MYO3A (MYO3 alpha) = target: T9, MYO3A (MYO3 alpha) (Homo sapiens, UniProt Q8NEV4); assay: LanthaScreen Binding - Eu-anti-GST; conditions: read-out: Percentage of inhibition
T9 construct: purchased Life Technologies
Protocol: as §1

CASK = target: T10, CASK (Homo sapiens, UniProt O14936); assay: LanthaScreen Binding - Eu-anti-GST; conditions: read-out: Percentage of inhibition
T10 construct: purchased Life Technologies (SelectScreen Whole Panel)
Protocol: as §1

MLCK (MLCK2) = MLCK (MLCK2) (Homo sapiens, UniProt Q32MK0); assay: LanthaScreen Binding - Eu-anti-GST; conditions: read-out: Percentage of inhibition
Protocol: as §1

GAK = target: T11, GAK (Homo sapiens, UniProt O14976); assay: LanthaScreen Binding - Eu-anti-GST; conditions: read-out: Percentage of inhibition
T11 construct: purchased Life Technologies (SelectScreen service)
Protocol: as §1

KIT T670E = KIT T670E (Homo sapiens, UniProt P10721, T670E); assay: LanthaScreen Binding - Eu-anti-GST; conditions: read-out: Percentage of inhibition
Protocol: as §1

ERN2 = target: T12, ERN2 (Homo sapiens, UniProt Q76MJ5); assay: LanthaScreen Binding - Eu-anti-GST; conditions: read-out: Percentage of inhibition
T12 construct: purchased Life Technologies (SelectScreen)
Protocol: as §1

TESK2 = target: T13, TESK2 (Homo sapiens, UniProt Q96S53); assay: LanthaScreen Binding - Eu-anti-GST; conditions: read-out: Percentage of inhibition
T13 construct: purchased Life Technologies
Protocol: as §1

MAP3K2 (MEKK2) = target: T14, MAP3K2 (MEKK2) (Homo sapiens, UniProt Q9Y2U5); assay: LanthaScreen Binding - Eu-anti-GST; conditions: read-out: Percentage of inhibition
T14 construct: purchased Life Technologies
Protocol: as §1

PRKACG (PRKAC gamma) = target: T15, PRKACG (PRKAC gamma) (Homo sapiens, UniProt P22612); assay: LanthaScreen Binding - Eu-anti-GST; conditions: read-out: Percentage of inhibition
T15 construct: purchased Life Technologies (SelectScreen Whole Panel service)
Protocol: as §1

MAPK10 (JNK3) = target: T16, MAPK10 (JNK3) (Homo sapiens, UniProt P53779); assay: LanthaScreen Binding - Eu-anti-GST; conditions: read-out: Percentage of inhibition
T16 construct: purchased Life Technologies
Protocol: as §1

TEK (TIE2) R849W = target: T17, TEK (TIE2) R849W (Homo sapiens, UniProt Q02763, R849W); assay: LanthaScreen Binding - Eu-anti-GST; conditions: read-out: Percentage of inhibition
T17 construct: purchased Life Technologies (SelectScreen Whole Panel service)
Protocol: as §1

ABL1 Q252H = target: T18, ABL1 Q252H (Homo sapiens, UniProt P00519, Q252H); assay: LanthaScreen Binding - Eu-anti-GST; conditions: read-out: Percentage of inhibition
T18 construct: purchased Life Technologies (SelectScreen service)
Protocol: as §1

ULK1 = target: T19, ULK1 (Homo sapiens, UniProt O75385); assay: LanthaScreen Binding - Eu-anti-GST; conditions: read-out: Percentage of inhibition
T19 construct: purchased Life Technologies
Protocol: as §1

CDK16 (PCTK1)/cyclin Y = target: T20, CDK16 (PCTK1)/cyclin Y (Homo sapiens, UniProt Q00536); assay: LanthaScreen Binding - Eu-anti-GST; conditions: read-out: Percentage of inhibition
T20 construct: purchased Life Technologies
Protocol: as §1

STK17B (DRAK2) = target: T21, STK17B (DRAK2) (Homo sapiens, UniProt O94768); assay: LanthaScreen Binding - Eu-anti-GST; conditions: ATP Km, read-out: Percentage of inhibition
T21 construct: purchased Life Technologies
Protocol: as §1

KIT N822K = target: T22, KIT N822K (Homo sapiens, UniProt P10721, N822K); assay: LanthaScreen Binding - Eu-anti-GST; conditions: read-out: Percentage of inhibition
T22 construct: purchased Life Technologies (SelectScreen Whole Panel service)
Protocol: as §1

STK38 (NDR) = target: T23, STK38 (NDR) (Homo sapiens, UniProt Q15208); assay: LanthaScreen Binding - Eu-anti-GST; conditions: read-out: Percentage of inhibition
T23 construct: purchased Life Technologies (SelectScreen Whole Panel service)
Protocol: as §1

MAP4K3 (GLK) = MAP4K3 (GLK) (Homo sapiens, UniProt Q8IVH8); assay: LanthaScreen Binding - Eu-anti-GST; conditions: read-out: Percentage of inhibition
Protocol: as §1

ACVR1 (ALK2) R206H = ACVR1 (ALK2) R206H (Homo sapiens, UniProt Q04771, R206H); assay: LanthaScreen Binding - Eu-anti-GST; conditions: read-out: Percentage of inhibition
Protocol: as §1

BRAF = target: T24, BRAF (Homo sapiens, UniProt P15056); assay: LanthaScreen Binding - Eu-anti-GST; conditions: read-out: Percentage of inhibition
T24 construct: purchased Life Technologies (SelectScreen Whole Panel)
Protocol: as §1

PI4K2B (PI4K2 beta) = target: T25, PI4K2B (PI4K2 beta) (Homo sapiens, UniProt Q8TCG2); assay: SelectScreen Adapta; type: biochemical; conditions: ATP Km, read-out: Percentage of inhibition
T25 construct: purchased Life Technologies (SelectScreen Whole Panel)
Protocol: as §1

PI4KB (PI4K beta) = target: T26, PI4KB (PI4K beta) (Homo sapiens, UniProt Q9UBF8); assay: SelectScreen Adapta; type: biochemical; conditions: ATP Km, read-out: Percentage of inhibition
T26 construct: purchased Life Technologies
Protocol: as §1

[1] = target: T27, PIK3CA E545K/PIK3R1 (p110 alpha E545K/p85 alpha) (Homo sapiens, UniProt P42336, E545K); assay: SelectScreen Adapta; type: biochemical; conditions: ATP Km, read-out: Percentage of inhibition
T27 construct: purchased Life Technologies (SelectScreen Whole Panel)
Protocol: as §1

PIP5K1A = target: T28, PIP5K1A (Homo sapiens, UniProt Q99755); assay: SelectScreen Adapta; type: biochemical; conditions: ATP 10 µM, read-out: Percentage of inhibition
T28 construct: purchased Life Technologies (SelectScreen service)
Protocol: as §1

PIP4K2A = PIP4K2A (Homo sapiens, UniProt P48426); assay: SelectScreen Adapta; type: biochemical; conditions: ATP 10 µM, read-out: Percentage of inhibition
Protocol: as §1

IRAK1 = target: T29, IRAK1 (Homo sapiens, UniProt P51617); assay: SelectScreen Adapta; type: biochemical; conditions: ATP Km, read-out: Percentage of inhibition
T29 construct: purchased Life Technologies (SelectScreen service)
Protocol: as §1

SPHK2 = target: T30, SPHK2 (Homo sapiens, UniProt Q9NRA0); assay: SelectScreen Adapta; type: biochemical; conditions: ATP 10 µM, read-out: Percentage of inhibition
T30 construct: purchased Life Technologies (SelectScreen Whole Panel)
Protocol: as §1

LRRK2 G2019S = target: T31, LRRK2 G2019S (Homo sapiens, UniProt Q5S007, G2019S); assay: SelectScreen Adapta; type: biochemical; conditions: ATP Km, read-out: Percentage of inhibition
T31 construct: purchased Life Technologies
Protocol: as §1

T2 sequence (P06241 whole entry): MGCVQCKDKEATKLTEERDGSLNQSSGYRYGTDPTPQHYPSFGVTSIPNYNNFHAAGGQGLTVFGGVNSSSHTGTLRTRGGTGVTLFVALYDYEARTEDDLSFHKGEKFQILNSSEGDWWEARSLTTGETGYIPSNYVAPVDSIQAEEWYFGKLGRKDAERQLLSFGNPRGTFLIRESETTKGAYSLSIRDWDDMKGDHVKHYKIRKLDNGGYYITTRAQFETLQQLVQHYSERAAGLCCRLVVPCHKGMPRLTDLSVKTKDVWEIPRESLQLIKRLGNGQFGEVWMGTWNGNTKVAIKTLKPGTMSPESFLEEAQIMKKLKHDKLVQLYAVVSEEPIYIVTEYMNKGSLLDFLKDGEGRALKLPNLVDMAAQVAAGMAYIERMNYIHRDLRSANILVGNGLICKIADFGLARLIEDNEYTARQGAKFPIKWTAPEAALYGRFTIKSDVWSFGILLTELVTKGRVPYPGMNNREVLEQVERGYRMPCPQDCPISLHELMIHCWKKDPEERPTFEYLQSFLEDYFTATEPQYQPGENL
Chain of CDK5 (Inactive) (Q00535 whole entry): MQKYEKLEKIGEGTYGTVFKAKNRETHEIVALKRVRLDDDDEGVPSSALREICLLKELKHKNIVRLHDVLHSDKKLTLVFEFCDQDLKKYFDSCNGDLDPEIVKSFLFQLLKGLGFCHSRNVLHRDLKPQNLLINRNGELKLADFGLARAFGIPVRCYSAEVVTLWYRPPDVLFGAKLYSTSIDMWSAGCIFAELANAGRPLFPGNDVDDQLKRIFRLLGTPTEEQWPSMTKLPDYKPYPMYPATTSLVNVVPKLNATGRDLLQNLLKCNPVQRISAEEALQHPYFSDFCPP
T14 sequence (Q9Y2U5 whole entry): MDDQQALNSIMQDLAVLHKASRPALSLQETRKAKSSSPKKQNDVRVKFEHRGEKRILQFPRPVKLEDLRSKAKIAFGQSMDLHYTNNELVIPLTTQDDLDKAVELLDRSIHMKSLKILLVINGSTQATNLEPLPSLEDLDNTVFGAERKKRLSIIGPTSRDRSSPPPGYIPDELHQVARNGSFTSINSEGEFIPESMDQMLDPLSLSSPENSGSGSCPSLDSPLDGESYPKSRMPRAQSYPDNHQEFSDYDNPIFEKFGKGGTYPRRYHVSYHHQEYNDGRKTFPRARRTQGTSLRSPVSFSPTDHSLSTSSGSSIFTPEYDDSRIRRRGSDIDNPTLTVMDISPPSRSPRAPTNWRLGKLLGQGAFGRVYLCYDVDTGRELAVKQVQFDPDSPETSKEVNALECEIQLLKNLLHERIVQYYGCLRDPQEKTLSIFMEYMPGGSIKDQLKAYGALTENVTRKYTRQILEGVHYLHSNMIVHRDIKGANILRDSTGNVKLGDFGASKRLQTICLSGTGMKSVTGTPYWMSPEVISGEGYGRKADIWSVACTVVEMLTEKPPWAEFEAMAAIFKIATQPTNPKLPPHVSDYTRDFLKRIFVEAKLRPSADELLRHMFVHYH
Chain of MAP4K3 (GLK) (Q8IVH8 whole entry): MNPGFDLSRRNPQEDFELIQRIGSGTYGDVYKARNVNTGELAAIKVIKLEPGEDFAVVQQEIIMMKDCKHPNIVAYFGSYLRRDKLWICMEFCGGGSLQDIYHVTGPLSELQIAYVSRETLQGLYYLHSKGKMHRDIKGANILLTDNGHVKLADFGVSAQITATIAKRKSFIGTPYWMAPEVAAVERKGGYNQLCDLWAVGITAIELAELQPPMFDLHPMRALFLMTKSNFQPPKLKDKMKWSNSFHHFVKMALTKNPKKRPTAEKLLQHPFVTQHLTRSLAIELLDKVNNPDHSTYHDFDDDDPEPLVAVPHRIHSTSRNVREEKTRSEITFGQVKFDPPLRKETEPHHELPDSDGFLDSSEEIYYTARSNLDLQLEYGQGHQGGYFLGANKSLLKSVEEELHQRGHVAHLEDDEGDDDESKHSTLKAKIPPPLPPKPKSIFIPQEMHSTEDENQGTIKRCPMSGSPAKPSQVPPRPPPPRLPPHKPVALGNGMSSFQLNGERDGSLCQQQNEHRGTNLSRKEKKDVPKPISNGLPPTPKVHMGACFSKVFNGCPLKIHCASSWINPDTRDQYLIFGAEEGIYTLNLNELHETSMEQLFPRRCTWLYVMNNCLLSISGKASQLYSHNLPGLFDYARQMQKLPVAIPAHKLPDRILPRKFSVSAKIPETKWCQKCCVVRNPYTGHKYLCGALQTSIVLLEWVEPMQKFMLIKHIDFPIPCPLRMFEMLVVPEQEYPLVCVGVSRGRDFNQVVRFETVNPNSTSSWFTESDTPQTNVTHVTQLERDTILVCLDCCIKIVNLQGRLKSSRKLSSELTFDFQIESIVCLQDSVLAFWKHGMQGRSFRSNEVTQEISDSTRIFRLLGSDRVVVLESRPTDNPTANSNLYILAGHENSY
T25 sequence (Q8TCG2 whole entry): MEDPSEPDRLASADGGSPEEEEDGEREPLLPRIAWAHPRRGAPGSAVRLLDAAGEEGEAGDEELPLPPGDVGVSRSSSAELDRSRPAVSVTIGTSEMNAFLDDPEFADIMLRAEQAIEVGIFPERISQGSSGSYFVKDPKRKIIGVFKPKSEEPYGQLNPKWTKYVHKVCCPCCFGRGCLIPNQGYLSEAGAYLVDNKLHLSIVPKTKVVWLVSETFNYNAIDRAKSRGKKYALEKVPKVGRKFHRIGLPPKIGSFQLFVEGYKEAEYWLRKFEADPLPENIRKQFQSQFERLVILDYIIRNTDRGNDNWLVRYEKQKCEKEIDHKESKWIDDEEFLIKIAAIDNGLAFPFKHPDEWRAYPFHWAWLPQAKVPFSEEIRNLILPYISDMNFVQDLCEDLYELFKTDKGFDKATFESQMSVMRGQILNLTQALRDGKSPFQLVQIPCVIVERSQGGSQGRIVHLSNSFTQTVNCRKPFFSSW
T27 sequence (P42336 whole entry E545K): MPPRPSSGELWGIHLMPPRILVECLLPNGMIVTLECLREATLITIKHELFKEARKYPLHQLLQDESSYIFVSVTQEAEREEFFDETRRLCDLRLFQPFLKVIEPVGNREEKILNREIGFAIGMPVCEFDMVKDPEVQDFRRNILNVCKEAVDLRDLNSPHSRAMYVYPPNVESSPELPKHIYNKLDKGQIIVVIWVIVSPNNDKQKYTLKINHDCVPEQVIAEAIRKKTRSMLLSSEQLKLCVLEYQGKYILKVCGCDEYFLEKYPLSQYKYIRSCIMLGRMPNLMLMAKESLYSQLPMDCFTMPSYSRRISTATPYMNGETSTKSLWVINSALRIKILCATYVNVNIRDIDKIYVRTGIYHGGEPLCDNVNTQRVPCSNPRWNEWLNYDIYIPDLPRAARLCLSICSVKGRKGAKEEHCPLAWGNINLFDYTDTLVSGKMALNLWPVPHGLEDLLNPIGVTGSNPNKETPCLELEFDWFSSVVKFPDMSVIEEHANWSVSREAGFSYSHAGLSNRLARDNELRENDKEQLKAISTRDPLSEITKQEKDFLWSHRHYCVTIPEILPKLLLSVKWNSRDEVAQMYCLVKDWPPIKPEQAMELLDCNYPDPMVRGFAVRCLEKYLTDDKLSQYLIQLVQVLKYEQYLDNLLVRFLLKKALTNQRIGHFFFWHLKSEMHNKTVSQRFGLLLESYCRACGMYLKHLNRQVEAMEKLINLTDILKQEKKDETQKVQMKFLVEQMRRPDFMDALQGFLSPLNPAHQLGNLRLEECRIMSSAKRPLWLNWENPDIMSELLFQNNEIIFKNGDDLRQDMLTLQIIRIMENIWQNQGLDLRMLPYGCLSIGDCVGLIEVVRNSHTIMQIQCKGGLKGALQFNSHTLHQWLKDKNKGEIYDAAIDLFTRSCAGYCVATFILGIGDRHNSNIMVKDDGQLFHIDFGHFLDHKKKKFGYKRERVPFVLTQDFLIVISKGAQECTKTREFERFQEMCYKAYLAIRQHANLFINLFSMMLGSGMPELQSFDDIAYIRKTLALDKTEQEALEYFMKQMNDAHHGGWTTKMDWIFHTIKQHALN
T27 sequence (P27986 whole entry partner): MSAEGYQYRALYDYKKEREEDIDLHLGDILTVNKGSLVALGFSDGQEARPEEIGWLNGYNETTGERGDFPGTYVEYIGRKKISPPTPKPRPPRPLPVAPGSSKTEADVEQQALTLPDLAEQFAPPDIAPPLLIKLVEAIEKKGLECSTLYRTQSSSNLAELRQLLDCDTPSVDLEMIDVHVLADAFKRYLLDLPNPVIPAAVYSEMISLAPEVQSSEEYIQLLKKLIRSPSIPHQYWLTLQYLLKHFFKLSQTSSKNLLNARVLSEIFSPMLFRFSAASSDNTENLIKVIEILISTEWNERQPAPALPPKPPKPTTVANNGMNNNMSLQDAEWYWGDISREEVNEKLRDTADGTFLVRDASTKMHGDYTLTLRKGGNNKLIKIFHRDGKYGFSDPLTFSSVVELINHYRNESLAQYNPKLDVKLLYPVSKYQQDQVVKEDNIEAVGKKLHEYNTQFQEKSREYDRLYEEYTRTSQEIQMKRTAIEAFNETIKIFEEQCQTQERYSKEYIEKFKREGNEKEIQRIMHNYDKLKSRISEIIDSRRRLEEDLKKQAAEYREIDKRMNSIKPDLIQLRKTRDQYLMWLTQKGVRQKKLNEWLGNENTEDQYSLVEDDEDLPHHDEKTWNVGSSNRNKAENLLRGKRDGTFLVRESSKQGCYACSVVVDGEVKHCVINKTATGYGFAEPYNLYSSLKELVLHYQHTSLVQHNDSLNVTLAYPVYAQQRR
T21 sequence (O94768 whole entry): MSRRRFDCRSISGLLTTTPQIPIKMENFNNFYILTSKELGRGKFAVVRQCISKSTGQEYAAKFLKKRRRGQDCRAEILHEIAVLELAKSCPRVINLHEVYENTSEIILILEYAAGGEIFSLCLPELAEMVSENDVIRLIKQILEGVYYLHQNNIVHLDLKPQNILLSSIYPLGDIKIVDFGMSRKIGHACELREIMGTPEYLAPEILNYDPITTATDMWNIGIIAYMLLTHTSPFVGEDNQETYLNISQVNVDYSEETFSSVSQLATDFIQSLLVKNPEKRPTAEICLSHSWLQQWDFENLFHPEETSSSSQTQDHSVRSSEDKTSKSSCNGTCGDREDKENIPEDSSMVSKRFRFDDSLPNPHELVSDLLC

Molecule `COc1ccc2[nH]c3c(=O)[nH]c4ccc(O)cc4c3c2c1` [Compound 55, 2-Hydroxy-10-methoxy-5,7-dihydro-6H-indolo[2,3-c]quinolin-6-one] has an inhibition at 1 µM (VRK2) of 54%, an inhibition at 1 µM (FYN A) of 45% and an inhibition at 1 µM (CDK5 (Inactive)) of 21%. For the same molecule, the inhibition at 1 µM (CDK3/cyclin E1) was 50%, the inhibition at 1 µM (MAP3K14 (NIK)) was 79% and the Percentage of inhibition (FLT3 ITD) was 97%. It also gave an inhibition at 1 µM (TESK1) of 15%, an inhibition at 1 µM (MAP3K3 (MEKK3)) of 71% and an inhibition at 1 µM (AXL R499C) of 35%. It also gave an inhibition at 1 µM (PKN2 (PRK2)) of 32%, an inhibition at 1 µM (LIMK2) of 11% and an inhibition at 1 µM (MYO3A (MYO3 alpha)) of 33%. It also gave an inhibition at 1 µM (CASK) of -3%, an inhibition at 1 µM (MLCK (MLCK2)) of 62% and an inhibition at 1 µM (GAK) of 90%. It also gave an inhibition at 1 µM (KIT T670E) of 63%, an inhibition at 1 µM (ERN2) of 8% and an inhibition at 1 µM (TESK2) of 3%. For the same molecule, the inhibition at 1 µM (MAP3K2 (MEKK2)) was 42%, the inhibition at 1 µM (PRKACG (PRKAC gamma)) was 17% and the inhibition at 1 µM (MAPK10 (JNK3)) was 29%. It also gave an inhibition at 1 µM (TEK (TIE2) R849W) of 11%, an inhibition at 1 µM (ABL1 Q252H) of 77% and an inhibition at 1 µM (ULK1) of 31%. For the same molecule, the inhibition at 1 µM (CDK16 (PCTK1)/cyclin Y) was 38%, the inhibition at 1 µM (STK17B (DRAK2)) was 93% and the inhibition at 1 µM (KIT N822K) was 45%. The inhibition at 1 µM (STK38 (NDR)) was 12%, the inhibition at 1 µM (MAP4K3 (GLK)) was 59% and the inhibition at 1 µM (ACVR1 (ALK2) R206H) was 14%. The inhibition at 1 µM (BRAF) was 6%, the inhibition at 1 µM (PI4K2B (PI4K2 beta)) was 1% and the inhibition at 1 µM (PI4KB (PI4K beta)) was 41%. It also gave an inhibition at 1 µM [1] of 51%, an inhibition at 1 µM (PIP5K1A) of 23% and an inhibition at 1 µM (PIP4K2A) of 13%. The inhibition at 1 µM (IRAK1) was 91%, the inhibition at 1 µM (SPHK2) was -1% and the inhibition at 1 µM (LRRK2 G2019S) was 95%.
